Test results: US10829501B2 (BRISTOL-MYERS SQUIBB COMPANY, priority 2016, dated 2020)
Where a name gives a salt, the structure may show the parent alone.

target: ROCK2 (Homo sapiens, UniProt O75116); experiment: ROCK2 kinase inhibition assay (LABCHIP 3000 Reader, FITC peptide substrate); details: not given;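 note: rho kinase reaction read by separating phosphorylated from unphosphorylated peptide on chip, with inhibition of kinase activity computed per concentration across a dose-response series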
Sequence (O75116 whole entry, species assumed): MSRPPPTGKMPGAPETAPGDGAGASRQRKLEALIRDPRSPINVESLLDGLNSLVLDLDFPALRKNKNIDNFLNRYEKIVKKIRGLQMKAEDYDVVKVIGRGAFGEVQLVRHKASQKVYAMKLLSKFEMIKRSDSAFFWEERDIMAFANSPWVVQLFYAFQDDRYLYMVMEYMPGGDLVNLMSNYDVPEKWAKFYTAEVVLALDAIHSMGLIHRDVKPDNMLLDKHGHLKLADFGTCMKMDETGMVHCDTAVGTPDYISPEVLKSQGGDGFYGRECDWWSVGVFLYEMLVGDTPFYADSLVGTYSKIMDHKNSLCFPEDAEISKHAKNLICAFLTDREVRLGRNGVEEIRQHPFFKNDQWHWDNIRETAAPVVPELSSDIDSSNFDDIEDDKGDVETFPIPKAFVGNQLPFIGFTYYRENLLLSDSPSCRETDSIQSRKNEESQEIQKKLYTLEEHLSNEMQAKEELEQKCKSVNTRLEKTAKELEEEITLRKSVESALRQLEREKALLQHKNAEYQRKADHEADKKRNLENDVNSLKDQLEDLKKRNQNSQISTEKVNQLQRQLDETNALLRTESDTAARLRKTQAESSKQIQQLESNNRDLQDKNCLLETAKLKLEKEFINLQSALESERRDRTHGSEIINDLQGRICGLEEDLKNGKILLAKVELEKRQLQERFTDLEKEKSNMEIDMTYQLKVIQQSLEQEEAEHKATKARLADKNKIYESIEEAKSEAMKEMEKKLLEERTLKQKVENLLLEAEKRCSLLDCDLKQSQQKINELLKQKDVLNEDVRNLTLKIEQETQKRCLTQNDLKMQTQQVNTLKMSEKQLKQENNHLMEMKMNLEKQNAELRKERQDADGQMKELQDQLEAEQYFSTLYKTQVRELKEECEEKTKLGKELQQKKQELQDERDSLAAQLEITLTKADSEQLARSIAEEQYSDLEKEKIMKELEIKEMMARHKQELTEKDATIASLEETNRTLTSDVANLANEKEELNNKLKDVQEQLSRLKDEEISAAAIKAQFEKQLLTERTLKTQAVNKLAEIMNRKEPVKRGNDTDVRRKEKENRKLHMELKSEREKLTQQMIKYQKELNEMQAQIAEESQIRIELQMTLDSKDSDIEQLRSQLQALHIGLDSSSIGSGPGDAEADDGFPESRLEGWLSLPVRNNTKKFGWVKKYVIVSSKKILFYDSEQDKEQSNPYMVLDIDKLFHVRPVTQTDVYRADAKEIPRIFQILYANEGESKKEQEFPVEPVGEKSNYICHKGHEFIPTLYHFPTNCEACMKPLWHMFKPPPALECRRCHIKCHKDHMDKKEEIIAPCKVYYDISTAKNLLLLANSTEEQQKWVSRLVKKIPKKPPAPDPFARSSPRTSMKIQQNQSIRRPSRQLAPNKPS

Row | IC50 [nM] | Structure (SMILES)
1 | 50 to 250 | COCCOCCn1nc(C(=O)N[C@H]2CC3(C2)C[C@H](Oc2ncccc2C(N)=O)C3)c2ccccc21 (stereo partly drawn) [Example 78, N-((aR)-6-((3-carbamoylpyridin-2-yl)oxy)spiro[3.3]heptan-2-yl)-1-(2-(2-methoxy-ethoxy)ethyl)-1H-indazole-3-carboxamide, trifluoroacetate]
2 | 50 to 250 | COc1cc(C(=O)N[C@H]2CC3(C2)C[C@H](Oc2ncccc2C(N)=O)C3)ccc1-n1cnc(C)c1 (stereo partly drawn) [Example 79, 2-((aR)-6-(3-methoxy-4-(4-methyl-1H-imidazol-1-yl)benzamido)spiro-[3.3]heptan-2-yl)oxy) nicotinamide, trifluoroacetate]
3 | 5 to 50 | CN(C)CCOc1ccc2c(C(=O)N[C@H]3CC4(C3)C[C@H](Oc3ncccc3C(N)=O)C4)cnn2c1 (stereo partly drawn) [Example 80, N-((aR)-6-((3-carbamoylpyridin-2-yl)oxy)spiro[3.3]heptan-2-yl)-6-(2-(dimethylamino)ethoxy) pyrazolo[1,5-a] pyridine-3-carboxamdie, trifluoroacetate]
4 | 5 to 50 | CC(C)(O)Cn1nc(C(=O)N[C@H]2CC3(C2)C[C@H](Oc2ncccc2C(N)=O)C3)c2ccc(Br)cc21 (stereo partly drawn) [Example 81, 6-bromo-N-((aR)-6-((3-carbamoylpyridin-2-yl)oxy)spiro[3.3]heptan-2-yl)-1-(2-hydroxy-2-methylpropyl)-1H-indazole-3-carboxamdie, trifluoroacetate]
5 | < 5 | NC(=O)c1cccnc1O[C@H]1CC2(C[C@H](NC(=O)c3cnn4cc(OCCC(F)(F)F)ccc34)C2)C1 (stereo partly drawn) [Example 82, N-((aR)-6-((3-carbamoylpyridin-2-yl)oxy)spiro[3.3]heptan-2-yl)-6-(3,3,3-trifluoropropoxy) pyrazolo[1,5-a]pyridine-3-carboxamide, trifluoroacetate]
6 | 250 to 2500 | Cc1cc(C(=O)N[C@H]2CC3(C2)C[C@H](Oc2ncccc2C(N)=O)C3)n(C)n1 (stereo partly drawn) [Example 83, 2-((aR)-6-(1,3-dimethyl-1H-pyrazole-5-carboxamido)spiro[3.3]heptan-2-yl)oxy)nicotinamide, trifluoroacetate]
7 | 50 to 250 | Cn1nc(C(=O)N[C@H]2CC3(C2)C[C@H](Oc2ncccc2C(N)=O)C3)cc1OCC1CC1 (stereo partly drawn) [Example 84, 2-((aR)-6-(5-(cyclopropyl-methoxy)-1-methyl-1H-pyrazole-3-carboxamido)spiro-[3.3]heptan-2-yl)oxy) nicotinamide, trifluoroacetate]
8 | 50 to 250 | Cn1nc(C2CC2)cc1C(=O)N[C@H]1CC2(C1)C[C@H](Oc1ncccc1C(N)=O)C2 (stereo partly drawn) [Example 85, 2-((aR)-6-(3-cyclopropyl-1-methyl-1H-pyrazole-5-carboxamido)spiro[3.3]heptan-2-yl)oxy) nicotinamide, trifluoroacetate]
9 | 50 to 250 | Cn1nc(C(=O)N[C@H]2CC3(C2)C[C@H](Oc2ncccc2C(N)=O)C3)cc1OCC(F)(F)C(F)F (stereo partly drawn) [Example 87, 2-((aR)-6-(1-methyl-5-(2,2,3,3-tetrafluoropropoxy)-1H-pyrazole-3-carboxamido)spiro[3.3]heptan-2-yl)oxy) nicotinamide, trifluoroacetate]
10 | 250 to 2500 | Cc1nc(-c2ccccn2)sc1C(=O)N[C@H]1CC2(C1)C[C@H](Oc1ncccc1C(N)=O)C2 (stereo partly drawn) [Example 88, N-((aR)-6-((3-carbamoyl-pyridin-2-yl)oxy)spiro[3.3]heptan-2-yl)-4-methyl-2-(pyridin-2-yl)thiazole-5-carboxamide, trifluoroacetate]
11 | 250 to 2500 | Cn1nc(-c2ccccc2)cc1C(=O)N[C@H]1CC2(C1)C[C@H](Oc1ncccc1C(N)=O)C2 (stereo partly drawn) [Example 89, 2-((aR)-6-(1-methyl-3-phenyl-1H-pyrazole-5-carboxamido)spiro[3.3]heptan-2-yl)oxy) nicotinamide, trifluoroacetate]
12 | 50 to 250 | Cn1nc(C(=O)N[C@H]2CC3(C2)C[C@H](Oc2ncccc2C(N)=O)C3)cc1OCCC(F)(F)F (stereo partly drawn) [Example 91, 2-((aR 6-(1-methyl-5-(3,3,3-trifluoropropoxy)-1H-pyrazole-3-carboxamido)spiro[3.3]heptan-2-yl)oxy) nicotinamide, trifluoroacetate]
13 | 50 to 250 | Cc1nc(N2CCC(F)(F)C2)sc1C(=O)N[C@H]1CC2(C1)C[C@H](Oc1ncccc1C(N)=O)C2 (stereo partly drawn) [Example 92, N-((aR)-6-((3-carbamoylpyridin-2-yl)oxy)spiro[3.3]heptan-2-yl)-2-(3,3-difluoropyrrolidin-1-yl)-4-methylthiazole-5-carboxamide, trifluoroacetate]
14 | 5 to 50 | CC(C)(O)Cn1nc(C(=O)N[C@H]2CC3(C2)C[C@H](Oc2ncccc2C(N)=O)C3)c2cc(Br)ccc21 (stereo partly drawn) [Example 93, 5-bromo-N-((aR)-6-((3-carbamoyl-pyridin-2-yl)oxy)spiro[3.3]heptan-2-yl)-1-(2-hydroxy-2-methylpropyl)-1H-indazole-3-carboxamide, trifluoroacetate]
15 | 50 to 250 | Cn1nc(C(=O)N[C@H]2CC3(C2)C[C@H](Oc2ncccc2C(N)=O)C3)cc1OCC(F)F (stereo partly drawn) [Example 95, 2-((aR)-6-(5-(2,2-difluoroethoxy)-1-methyl-1H-pyrazole-3-carboxamido)spiro-[3.3]heptan-2-yl)oxy) nicotinamide, trifluoroacetate]
16 | 50 to 250 | Cc1nc(-c2ccccc2)sc1C(=O)N[C@H]1CC2(C1)C[C@H](Oc1ncccc1C(N)=O)C2 (stereo partly drawn) [Example 96, N-((aR)-6-((3-carbamoylpyridin-2-yl)oxy)spiro[3.3]heptan-2-yl)-4-methyl-2-phenylthiazole-5-carboxamide, trifluoroacetate]
17 | 5 to 50 | CC(C)(O)Cn1nc(C(=O)N[C@H]2CC3(C2)C[C@H](Oc2ncccc2C(N)=O)C3)c2ccc(OC(F)(F)F)cc21 (stereo partly drawn) [Example 98, N-((aR)-6-((3-carbamoylpyridin-2-yl)oxy)spiro[3.3]heptan-2-yl)-1-(2-hydroxy-2-methylpropyl)-6-(trifluoromethoxy)-1H-indazole-3-carboxamide, trifluoroacetate]
18 | 5 to 50 | COc1ccc2c(C(=O)N[C@H]3CC4(C3)C[C@H](Oc3ncccc3C(N)=O)C4)cnn2c1CCC(F)(F)F (stereo partly drawn) [Example 99, N-((aR)-6-((3-carbamoylpyridin-2-yl)oxy)spiro[3.3]heptan-2-yl)-6-methoxy-7-(3,3,3-trifluoropropyl) pyrazolo[1,5-a]pyridine-3-carboxamide, trifluoroacetate]
19 | 5 to 50 | Cn1cc(-c2c(OCC(C)(C)O)ccc3c(C(=O)N[C@H]4CC5(C4)C[C@H](Oc4ncccc4C(N)=O)C5)cnn23)cn1 (stereo partly drawn) [Example 101, N-((aR)-6-((3-carbamoylpyridin-2-yl)oxy)spiro[3.3]heptan-2-yl)-6-(2-hydroxy-2-methylpropoxy)-7-(1-methyl-1H-pyrazol-4-yl)pyrazolo[1,5-a]pyridine-3-carboxamide, trifluoroacetate]
20 | 5 to 50 | CC(C)(O)Cn1nc(C(=O)N[C@H]2CC3(C2)C[C@H](Oc2ncccc2C(N)=O)C3)c2ccccc21 (stereo partly drawn) [Example 102, N-((aR)-6-((3-carbamoylpyridin-2-yl)oxy)spiro[3.3]heptan-2-yl)-1-(2-hydroxy-2-methylpropyl)-1H-indazole-3-carboamide, trifluoroacetate]

same assay, conditions: read-out: ROCK2 Activity (ROCK2 IC50); 5 μM ATP, 1.5 μM peptide substrate, pH 7.5

Row | Structure (SMILES) | IC50 [nM]
21 | CC(C)(O)Cn1nc(C(=O)NC2CC3(C2)CC(Oc2ncccc2C(N)=O)C3)c2ccc(F)cc21 [Example 97, N-((aR)-6-((3-carbamoylpyridin-2-yl)oxy)spiro[3.3]heptan-2-yl)-6-fluoro-1-(2-hydroxy-2-methylpropyl)-1H-indazole-3-carboxamide, trifluoroacetate] | 5 to 50
